Laboratory results: ChEMBL document CHEMBL5131519, “Conversion of a False Virtual Screen Hit into Selective JAK2 JH2 Domain Binders Using Convergent Design Strategies” (ACS Med Chem Lett, 2022)

Key:
[1] = target: T1, Tyrosine-protein kinase JAK2 (Homo sapiens, UniProt O60674); assay: Binding affinity to wild type JAK2 JH2 pseudokinase domain (unknown origin) expressed in Sf9 cells and measured upto 30 mins by competitive fluorescence polarization assay
[2] = target: T1, Tyrosine-protein kinase JAK2; assay: Binding affinity to wild type JAK2 JH2 pseudokinase domain (unknown origin) expressed in Sf9 cells at 50 uM and measured upto 30 mins competitive fluorescence polarization assay
in vitro = assay: in vitro; set-up: dose or concentration left out as unconfirmed; conditions: PAMPA, pH 7.4
Description: Permeability of compound in PBS buffer at pH 7.4 at 500 mM incubated for 18 hrs by UV plate reader based PAMPA assay

[3] = Binding affinity to wild type JAK2 JH1 catalytic domain (unknown origin) expressed in Sf9 cells and measured upto 30 mins by competitive fluorescence polarization assay; set-up: species or system Homo sapiens
[4] = target: Tyrosine-protein kinase JAK2 (Homo sapiens, UniProt O60674, V617F); assay: Binding affinity to wild type JAK2 JH2 pseudokinase domain (unknown origin) V617F mutant expressed in Sf9 cells and measured upto 30 mins by competitive fluorescence polarization assay
Sequence of Tyrosine-protein kinase JAK2 (Homo sapiens, UniProt O60674, V617F) (O60674 whole entry V617F, the tested form may be a part): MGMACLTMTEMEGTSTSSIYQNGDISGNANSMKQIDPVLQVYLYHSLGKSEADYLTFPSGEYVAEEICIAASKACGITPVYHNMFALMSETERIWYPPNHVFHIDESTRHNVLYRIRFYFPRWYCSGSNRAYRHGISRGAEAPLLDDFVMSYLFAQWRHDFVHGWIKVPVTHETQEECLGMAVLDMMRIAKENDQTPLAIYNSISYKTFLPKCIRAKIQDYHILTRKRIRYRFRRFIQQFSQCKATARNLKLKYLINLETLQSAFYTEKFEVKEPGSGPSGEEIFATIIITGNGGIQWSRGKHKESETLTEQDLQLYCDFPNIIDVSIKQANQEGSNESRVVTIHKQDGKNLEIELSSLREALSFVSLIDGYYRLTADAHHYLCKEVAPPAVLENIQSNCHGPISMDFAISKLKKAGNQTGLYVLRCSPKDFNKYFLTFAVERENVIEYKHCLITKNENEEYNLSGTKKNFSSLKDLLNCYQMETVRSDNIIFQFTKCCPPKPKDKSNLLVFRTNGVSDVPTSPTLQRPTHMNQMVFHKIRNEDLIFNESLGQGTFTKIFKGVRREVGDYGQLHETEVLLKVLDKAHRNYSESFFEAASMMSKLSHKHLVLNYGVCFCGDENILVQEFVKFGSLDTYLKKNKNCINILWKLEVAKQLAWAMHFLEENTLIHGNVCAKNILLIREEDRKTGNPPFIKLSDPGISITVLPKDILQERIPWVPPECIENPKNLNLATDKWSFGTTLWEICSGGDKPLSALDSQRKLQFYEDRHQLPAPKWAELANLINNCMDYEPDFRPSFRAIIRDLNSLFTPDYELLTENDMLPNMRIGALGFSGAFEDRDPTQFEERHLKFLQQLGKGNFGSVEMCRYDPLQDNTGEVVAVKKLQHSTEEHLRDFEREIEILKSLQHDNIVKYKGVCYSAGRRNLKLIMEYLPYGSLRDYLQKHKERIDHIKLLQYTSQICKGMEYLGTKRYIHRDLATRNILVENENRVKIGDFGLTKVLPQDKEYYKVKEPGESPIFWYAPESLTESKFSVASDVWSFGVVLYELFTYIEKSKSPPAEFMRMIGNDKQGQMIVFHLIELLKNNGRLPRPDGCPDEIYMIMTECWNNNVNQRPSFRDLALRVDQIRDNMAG

T1 sequence (O60674 whole entry, the tested form may be a part): as the sequence (O60674 whole entry V617F, the tested form may be a part) above, with F617V counted along it

Row | Compound | Kd [1] | Activity [2] | other results
1 | Nc1nc(Oc2ccc(NC(=O)N[C@@H](COCc3ccccc3)C(=O)O)cc2)c2cc[nH]c2n1 | 590 nM | – | –
2 | Nc1nc(Oc2ccc(NS(=O)(=O)CCC(=O)O)cc2)c2cc[nH]c2n1 | – | 18% | –
3 | Nc1nc(Oc2ccc(NC(=O)N[C@H](CCc3ccccc3)C(=O)O)cc2)c2cc[nH]c2n1 | – | 46% | –
4 | O=C(N[C@H](CO)[C@H](O)c1ccc([N+](=O)[O-])cc1)C(Cl)Cl [CHLORAMPHENICOL] | – | – | Papp at 18 h (in vitro): 4.53 ×10⁻⁶ cm/s
5 | Nc1nc(Oc2ccc(NC(=O)NCCC(=O)O)cc2)c2cc[nH]c2n1 | – | 30% | –
6 | Nc1nc(Oc2ccc(NC(=O)CCC(=O)O)cc2)c2cc[nH]c2n1 | 18800 nM | – | –

Further lines, with some results ahead:

Row | Kd [1] | Activity [2] | Compound | other results
7 | 9900 nM | – | Nc1nc(Oc2ccc(NC(=O)N[C@H](Cc3ccccc3)C(=O)O)cc2)c2cc[nH]c2n1 | –
8 | – | 27% | Nc1nc(Oc2ccc(NC(=O)CCCC(=O)O)cc2)c2cc[nH]c2n1 | –
9 | 327 nM | – | Nc1nc(Oc2ccc(NC(=O)N[C@@H](CCc3ccccc3)C(=O)O)cc2)c2cc[nH]c2n1 | Kd [3]: 36100 nM; Kd [4]: 179 nM
10 | 587 nM | – | Nc1nc(Oc2ccc(NC(=O)N[C@@H](CCCc3ccccc3)C(=O)O)cc2)c2cc[nH]c2n1 | –
11 | 2220 nM | – | Nc1nc(Oc2ccc(NC(=O)N[C@@H](Cc3ccccc3)C(=O)O)cc2)c2cc[nH]c2n1 | –
12 | – | 4% | Nc1nc(-c2ccc(S(=O)(=O)CCC(=O)O)cc2)c2cc[nH]c2n1 | –
